Where two headings read alike, the source gives them in different places. Values belong to the compound of their own block, whether it stands above or below them.
What was measured:
VMAT2_WT = VMAT2_WT (Homo sapiens, UniProt Q05940); test: MST binding to WT VMAT2
Method: (§1) The eGFP-tagged full-length VMAT2 or VMAT2 mutants was purified by size exclusion chromatography in the assay buffer (50 mM HEPES, 150 mM NaCl, 0.01% DDM, 0.001% CHS, pH 7.4) as described but without cleavage. Peak fractions were pooled and diluted to 40 nM. […] For MST measurements, a series of 16 sequential 1:1 dilutions were prepared using assay buffer for each ligand, and each ligand dilution was mixed 1:1 with diluted protein to final protein concentration of 20 nM and final ligand concentrations in the μM to nM range. The samples were incubated for 10 min at room temperature, and then loaded into Standard Monolith Capillaries (Cat# MO-K022, NanoTemper Technologies). Measurements were carried out with a Monolith NT.115 device at 80% LED power and 40% MST power. Kd was determined using the MO. Affinity Analysis software (version 2.3, NanoTemper Technologies, Germany) is with the Kd fit function. Capillaries displaying aggregation or adsorption were excluded. Data of at least three independently pipetted measurements were analyzed and Kd is expressed as mean ± SEM. Binding curves were plotted by GraphPad Prism Prism 9.5.1 (GraphPad Software Inc., San Diego, USA).

VMAT2 Y433F = biological target: T1, VMAT2 Y433F (Homo sapiens, UniProt Q05940, Y433F); test: MST binding to VMAT2 Y433F mutant; conditions: Y433F variant, mean ± SEM
T1 construct: The eGFP-tagged full-length VMAT2 or VMAT2 mutants was purified by size exclusion chromatography; made in house; host or cells: Expi293 cells
T1 sequence (Q05940 whole entry Y433F): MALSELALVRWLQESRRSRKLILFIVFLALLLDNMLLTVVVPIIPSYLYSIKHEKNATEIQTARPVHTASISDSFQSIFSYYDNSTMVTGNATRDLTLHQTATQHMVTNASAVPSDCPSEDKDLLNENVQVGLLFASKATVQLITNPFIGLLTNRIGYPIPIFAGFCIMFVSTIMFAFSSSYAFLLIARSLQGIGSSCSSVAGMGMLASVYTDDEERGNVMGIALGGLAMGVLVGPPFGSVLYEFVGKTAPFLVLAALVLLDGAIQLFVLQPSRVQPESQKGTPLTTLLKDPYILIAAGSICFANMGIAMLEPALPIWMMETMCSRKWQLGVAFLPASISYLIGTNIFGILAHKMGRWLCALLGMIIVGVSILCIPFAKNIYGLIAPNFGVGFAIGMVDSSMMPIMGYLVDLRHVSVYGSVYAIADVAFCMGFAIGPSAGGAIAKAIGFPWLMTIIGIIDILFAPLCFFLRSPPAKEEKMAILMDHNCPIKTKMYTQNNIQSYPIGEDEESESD
Method: as §1

VMAT2 and VMAT1 = system: VMAT2 and VMAT1; parameters: method as in PMID 8643547; conditions: cited from earlier work
VMAT2 L37F = biological target: T2, VMAT2 L37F (Homo sapiens, UniProt Q05940, L37F); test: MST binding to VMAT2 L37F mutant
T2 construct: The eGFP-tagged full-length VMAT2 or VMAT2 mutants was purified by size exclusion chromatography; made in house; host or cells: Expi293 cells
T2 sequence (Q05940 whole entry L37F): as the sequence (Q05940 whole entry Y433F) above, with L37F, F433Y counted along it
Method: as §1

VMAT2 V232L = biological target: T3, VMAT2 V232L (Homo sapiens, UniProt Q05940, V232L); test: MST binding to VMAT2 V232L mutant; conditions: V232L variant, mean ± SEM
T3 construct: The eGFP-tagged full-length VMAT2 or VMAT2 mutants was purified by size exclusion chromatography; made in house; host or cells: Expi293 cells
T3 sequence (Q05940 whole entry V232L): as the sequence (Q05940 whole entry Y433F) above, with V232L, F433Y counted along it
Method: as §1

VMAT2 I308V = biological target: T4, VMAT2 I308V (Homo sapiens, UniProt Q05940, I308V); test: MST binding to VMAT2 I308V mutant; conditions: I308V variant, mean ± SEM
T4 construct: The eGFP-tagged full-length VMAT2 or VMAT2 mutants was purified by size exclusion chromatography; made in house; host or cells: Expi293 cells
T4 sequence (Q05940 whole entry I308V): as the sequence (Q05940 whole entry Y433F) above, with I308V, F433Y counted along it
Method: as §1

VMAT1_WT = biological target: T5, VMAT1_WT (Homo sapiens, UniProt P54219); test: MST binding to WT VMAT1
T5 sequence (P54219 1-525): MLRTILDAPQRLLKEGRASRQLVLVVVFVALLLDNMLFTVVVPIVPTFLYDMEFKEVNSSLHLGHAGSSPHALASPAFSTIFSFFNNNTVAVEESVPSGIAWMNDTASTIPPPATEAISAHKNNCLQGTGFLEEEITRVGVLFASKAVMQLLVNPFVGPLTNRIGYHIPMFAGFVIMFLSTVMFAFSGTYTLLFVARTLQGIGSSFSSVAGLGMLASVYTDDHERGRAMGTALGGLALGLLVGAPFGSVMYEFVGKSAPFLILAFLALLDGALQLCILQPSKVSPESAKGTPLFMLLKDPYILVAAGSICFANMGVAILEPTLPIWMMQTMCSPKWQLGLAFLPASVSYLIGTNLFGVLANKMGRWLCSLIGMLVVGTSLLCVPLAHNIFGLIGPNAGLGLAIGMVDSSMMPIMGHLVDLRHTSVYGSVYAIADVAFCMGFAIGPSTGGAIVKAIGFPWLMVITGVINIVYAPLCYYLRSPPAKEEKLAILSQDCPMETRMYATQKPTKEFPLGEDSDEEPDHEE

VMAT2 E312A = test: MST binding to VMAT2 E312A mutant; parameters: species or system human; conditions: E312A versus WT, MST (Fig. S9a)
Method: as §1

VMAT2 N34A = test: MST binding to VMAT2 N34A mutant; parameters: species or system human; conditions: N34A versus WT
Method: as §1

VMAT2 W318A = biological target: T6, VMAT2 W318A (Homo sapiens, UniProt Q05940, W318A); test: MST binding to VMAT2 W318A mutant; conditions: MST (Fig. S9a), versus WT
T6 construct: The eGFP-tagged full-length VMAT2 or VMAT2 mutants was purified by size exclusion chromatography; made in house; host or cells: Expi293 cells
T6 sequence (Q05940 whole entry W318A): as the sequence (Q05940 whole entry Y433F) above, with W318A, F433Y counted along it
Method: as §1

[1] = biological target: T7, VMAT2 Leu124 and Leu125 mutant (Homo sapiens, UniProt Q05940, L124R/L125R); test: MST binding to VMAT2 Leu124/Leu125 mutant; conditions: MST (Fig. S9a), versus WT
T7 construct: The eGFP-tagged full-length VMAT2 or VMAT2 mutants was purified by size exclusion chromatography; made in house; host or cells: Expi293 cells
T7 sequence (Q05940 whole entry L124R/L125R): as the sequence (Q05940 whole entry Y433F) above, with L124R, L125R, F433Y counted along it
Method: as §1

VMAT2 = system: VMAT2; parameters: method as in PMID 23506877; conditions: cited from earlier work
VMAT1 = system: VMAT1; parameters: method as in PMID 23506877; conditions: cited from earlier work

Sequence of VMAT2_WT (Q05940 whole entry): as the sequence (Q05940 whole entry Y433F) above, with F433Y counted along it

Kd (VMAT2_WT): 3300 ± 1010 nM
Kd (VMAT2 Y433F): 3440 ± 1130 nM
Compound: NCCc1c[nH]c2ccc(O)cc12 [5-HT, serotonin]

Compound: COC(=O)[C@H]1[C@H]2C[C@@H]3c4[nH]c5cc(OC)ccc5c4CCN3C[C@H]2C[C@@H](OC(=O)c2cc(OC)c(OC)c(OC)c2)[C@@H]1OC [RES, reserpine]
affinity or preference VMAT2 versus VMAT1 (VMAT2 and VMAT1): slight preference for VMAT2 over VMAT1

Kd (VMAT2_WT; MST, VMAT2 WT, mean ± SEM, n = 3–4, read-out: Kd): 60 nM
Kd (VMAT2 Y433F): 437 ± 141 nM
reduction of TBZ binding by L37F variant (VMAT2 L37F; L37F versus WT VMAT2, MST): 45 fold
Kd (VMAT2 L37F; MST, L37F variant, mean ± SEM): 2780 ± 1080 nM
Kd (VMAT2 V232L): 22900 ± 20000 nM
Kd (VMAT2 I308V): 168 ± 103 nM
difference in affinity between VMAT2 and VMAT1 (VMAT1_WT; 60 nM vs 9.38 μM): ~150 fold
Kd (VMAT1_WT; VMAT1 WT, mean ± SEM): 9380 nM
decrease in TBZ binding affinity, E312A mutant (VMAT2 E312A): 8 fold
reduction in TBZ binding affinity, N34A substitution (VMAT2 N34A): 7 fold
TBZ binding, W318A mutant (VMAT2 W318A): substantial reduction in TBZ binding
TBZ association, Leu124 and Leu125 perturbations [1]: largely diminished TBZ association
Compound: COc1cc2c(cc1OC)C1CC(=O)C(CC(C)C)CN1CC2 (stereo not drawn) [TBZ, tetrabenazine]
IC50 difference VMAT2 versus VMAT1 (VMAT1; 0.3 μM vs 3 μM): 10 fold
IC50 (VMAT1; VMAT1): 3000 nM
affinity or preference VMAT2 versus VMAT1 (VMAT2 and VMAT1): selectively target VMAT2

Compound: NCCc1c[nH]cn1 [histamine]
higher affinity of VMAT2 than VMAT1 (VMAT2 and VMAT1; substrates): 30 fold

Compound: O=C(c1ccc(F)cc1)C1CCN(CCn2c(=O)[nH]c3ccccc3c2=O)CC1 [ketanserin]
affinity or preference VMAT2 versus VMAT1 (VMAT2 and VMAT1): slight preference for VMAT2 over VMAT1
